Results on 11 compounds are retold here after ChEMBL document CHEMBL6121055, “Strategic Mutations in Designer Native Peptides Combat NLRP3 Inflammasome Activation in Neurodegenerative Disorders” (J Med Chem, 2025).

Active and inactive are the calls of the source. The rule behind the calls is not given here. Residues, ends and D or L forms follow the SMILES beside them. *: point of attachment. Biotin = O=C1N[C@H]2[C@H](CS[C@H]2CCCCC(=O)*)N1

Data set [1] has as its system N9. Put plainly: Inhibition of NLRP3 inflammasome activation in LPS/ATP-stimulated mouse N9 cells assessed as inhibition of IL-1beta mRNA expression at 20 uM by qRT-PCR analysis. It counts as cell-based.
Data set [2] has as its system N9. The experiment in a line: Inhibition of NLRP3 inflammasome activation in LPS/ATP-stimulated mouse N9 cells assessed as inhibition of caspase-1 mRNA expression at 20 uM by qRT-PCR analysis. It counts as cell-based.
Data set [3] is described as follows: Cytotoxicity against mouse N9 cells assessed as reduction in cell viability at 100 uM incubated for 24 hrs by MTT assay. Type of data set: toxicity, cell-based. The following applies: n9, 24 h.
The target in data set [4] is T1, Apoptosis-associated speck-like protein containing a CARD (Mus musculus) (UniProt Q9EPB4).
T1 sequence (whole entry): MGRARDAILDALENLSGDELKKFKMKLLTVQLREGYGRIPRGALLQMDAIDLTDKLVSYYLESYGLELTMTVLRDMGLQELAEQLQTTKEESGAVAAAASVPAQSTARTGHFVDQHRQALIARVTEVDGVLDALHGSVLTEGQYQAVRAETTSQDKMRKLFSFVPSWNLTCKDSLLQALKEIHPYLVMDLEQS
Put plainly: Binding affinity to ASC in LPS-stimulated mouse N9 cells at 10 to 30 uM incubated overnight by Western blot based pull down assay. It counts as cell-based. The settings on record: dose 10-30 µM.

The subject of data set [5] is N9. Put plainly: Binding affinity to NLRP3 in LPS-stimulated mouse N9 cells at 10 to 30 uM incubated overnight by Western blot based pull down assay. It counts as cell-based. The settings on record: dose 10-30 µM.
The test system of data set [6] is N9. The experiment in a line: Inhibition of NLRP3 inflammasome activation mediated pyroptosis in LPS/ATP-stimulated mouse N9 cells assessed as reduction in cell death at 100 uM measured after 24 hrs by MTT assay. Type of data set: cell-based.
Data set [7] addresses Apoptosis-associated speck-like protein containing a CARD (Homo sapiens, UniProt Q9ULZ3). The experiment in a line: Binding affinity to Alexa647-labeled ASC (unknown origin) assessed as dissociation constant incubated for 5 mins by fluorescence spectra based analysis.

Sequence of Apoptosis-associated speck-like protein containing a CARD (Q9ULZ3 whole entry): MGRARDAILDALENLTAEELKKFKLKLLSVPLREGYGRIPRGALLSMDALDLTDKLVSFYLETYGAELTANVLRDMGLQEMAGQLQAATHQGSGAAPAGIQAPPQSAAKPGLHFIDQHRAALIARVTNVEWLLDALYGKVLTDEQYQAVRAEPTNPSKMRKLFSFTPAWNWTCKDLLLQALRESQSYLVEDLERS

Take `C[C@H](NC(=O)[C@@H](N)CCCCN)C(=O)N[C@@H](CCCCN)C(=O)N[C@@H](CCCNC(=N)N)C(=O)N[C@@H](CC(=O)O)C(=O)O` (H-KAKRD-OH): the inhibition entry in the data set on N9 [1] and in the data set on N9 [2] was “Active” each time. In data set [3], the Activity entry was “Non-toxic”.

For `C[C@H](NC(=O)[C@@H](N)CCCCN)C(=O)N[C@@H](CCC(N)=O)C(=O)N[C@@H](CCCNC(=N)N)C(=O)N[C@@H](CC(=O)O)C(=O)O` (H-KAQRD-OH), the Activity entry in data set [3] was “Non-toxic”.

`CC(C)C[C@H](NC(=O)[C@H](C)NC(=O)[C@@H](N)CC(=O)O)C(=O)N[C@@H](CCC(=O)O)C(=O)N[C@@H](CC(N)=O)C(=O)O` (H-DALEN-OH): the Activity result in data set [3] is recorded as “Non-toxic”.

For the compound `CSCC[C@H](NC(=O)[C@H](CO)NC(=O)[C@H](C)NC(=O)[C@@H](NC(=O)[C@H](CC(C)C)NC(=O)[C@H](CC(N)=O)NC(=O)[C@H](CCC(=O)O)NC(=O)[C@H](CC(C)C)NC(=O)[C@H](C)NC(=O)[C@@H](N)CC(=O)O)[C@@H](C)O)C(=O)N[C@@H](CC(=O)O)C(=O)O` (H-DALENLTASMD-OH), in data set [3], the Activity entry was “Non-toxic”.

On to `CC[C@H](C)[C@H](NC(=O)[C@H](C)NC(=O)[C@H](C)NC(=O)[C@H](CC(C)C)NC(=O)[C@@H](NC(=O)[C@H](Cc1c[nH]c2ccccc12)NC(=O)[C@@H](NC(=O)CCCC[C@@H]1SC[C@@H]2NC(=O)N[C@@H]21)C(C)C)[C@@H](C)CC)C(=O)N[C@@H](CC(N)=O)C(=O)N[C@@H](CCCNC(=N)N)C(=O)N[C@@H](CCCNC(=N)N)C(=O)O` (Biotin-VWILAAINRR-OH), for which, in data set [4], the result was Active. Moreover, in the data set on N9 [5], the outcome was inactive.

In the case of `CC[C@H](C)[C@H](NC(=O)[C@H](CCSC)NC(=O)[C@H](CC(C)C)NC(=O)[C@@H](NC(=O)[C@H](C)NC(=O)[C@H](CC(C)C)NC(=O)[C@@H](N)CC(=O)O)[C@@H](C)O)C(=O)N[C@@H](CC(=O)O)C(=O)N[C@@H](Cc1ccccc1)C(=O)O` (H-DLATLMIDF-OH), the Activity entry in data set [3] is on record as “Non-toxic”.

With `CC[C@H](C)[C@H](NC(=O)[C@H](C)NC(=O)[C@H](C)NC(=O)[C@H](Cc1ccccc1)NC(=O)[C@@H](NC(=O)[C@H](Cc1c[nH]c2ccccc12)NC(=O)[C@@H](N)C(C)C)[C@@H](C)CC)C(=O)N[C@@H](CC(N)=O)C(=O)N[C@@H](CCCNC(=N)N)C(=O)N[C@@H](CCCNC(=N)N)C(=O)O` (H-VWIFAAINRR-OH), the inhibition result in the data set on N9 [6] is “Active”. The inhibition entry in the data set with N9 [1] and in the data set with N9 [2] was “Active; Better Activity Observed” in each case. For the same compound, the Activity result in data set [3] was “Non-toxic”. The Kd in data set [7] came to 850 nM.

With `CC[C@H](C)[C@H](NC(=O)[C@H](Cc1c[nH]c2ccccc12)NC(=O)[C@@H](N)C(C)C)C(=O)N[C@@H](Cc1ccccc1)C(=O)N[C@@H](C)C(=O)N[C@@H](CCCCN)C(=O)N[C@@H](C)C(=O)N[C@@H](CCCCN)C(=O)N[C@@H](CCCNC(=N)N)C(=O)N[C@@H](CC(=O)O)C(=O)O` (H-VWIFAKAKRD-OH), the inhibition entry with N9 [1] and in the data set with N9 [2] was “Active” each time. Besides, the Activity entry in data set [3] is recorded as “Non-toxic”.

Turning to `CSCC[C@H](NC(=O)[C@@H](N)CO)C(=O)N[C@@H](CC(=O)O)C(=O)N[C@@H](C)C(=O)N[C@@H](CC(C)C)C(=O)N[C@@H](CC(=O)O)C(=O)N[C@@H](CC(C)C)C(=O)N[C@H](C(=O)N[C@@H](CC(=O)O)C(=O)N[C@@H](CCCCN)C(=O)N[C@@H](CC(C)C)C(=O)N[C@H](C(=O)N[C@@H](CO)C(=O)O)C(C)C)[C@@H](C)O` (H-SMDALDLTDKLVS-OH), the Activity entry in data set [3] was “Non-toxic”.

`CC[C@H](C)[C@H](NC(=O)[C@H](CS)NC(=O)CNC(=O)[C@@H](N)CCCCN)C(=O)N1CCC[C@H]1C(=O)N[C@@H](CC(C)C)C(=O)N1CCC[C@H]1C(=O)N[C@@H](CCCNC(=N)N)C(=O)O` (H-KGCIPLPR-OH): the Activity entry in data set [3] was “Non-toxic”.

For the compound `CC[C@H](C)[C@H](NC(=O)[C@H](Cc1c[nH]c2ccccc12)NC(=O)[C@@H](N)C(C)C)C(=O)N[C@@H](CC(C)C)C(=O)N[C@@H](C)C(=O)N[C@@H](CCCCN)C(=O)N[C@@H](C)C(=O)N[C@@H](CCC(N)=O)C(=O)N[C@@H](CCCNC(=N)N)C(=O)N[C@@H](CC(=O)O)C(=O)O` (H-VWILAKAQRD-OH), in data set [3], the Activity result is “Non-toxic”.
